Series [1] has as its target T1, WT hTrxR (Homo sapiens, UniProt Q16881).
T1 sequence (Q16881 151-649 limits assumed): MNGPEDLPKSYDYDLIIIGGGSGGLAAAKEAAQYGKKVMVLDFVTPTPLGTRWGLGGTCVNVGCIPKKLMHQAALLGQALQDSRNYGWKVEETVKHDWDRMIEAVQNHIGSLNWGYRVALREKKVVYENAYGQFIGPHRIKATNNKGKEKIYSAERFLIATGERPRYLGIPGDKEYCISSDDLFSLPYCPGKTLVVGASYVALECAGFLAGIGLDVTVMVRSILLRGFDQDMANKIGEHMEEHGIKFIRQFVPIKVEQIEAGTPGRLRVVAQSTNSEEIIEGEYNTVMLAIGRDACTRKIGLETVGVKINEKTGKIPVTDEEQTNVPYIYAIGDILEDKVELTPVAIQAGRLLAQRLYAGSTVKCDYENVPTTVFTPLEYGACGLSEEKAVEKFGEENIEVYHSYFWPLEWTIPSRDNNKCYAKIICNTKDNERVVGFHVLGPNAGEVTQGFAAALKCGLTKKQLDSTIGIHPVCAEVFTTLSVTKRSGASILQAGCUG
Briefly: Test for reduction of DTNB by TrxR, wild type. It counts as biochemical. Conditions: 3 mM DTNB; 10 min pre-incubation with 200 μM NADPH; enzyme 4.8 nM. The source says:
(§1) The phosphole derivatives containing gold and platinum have been identified as powerful inhibitors of human GR and TrxR (see Table 1). With either the substrate TrxC72S, or DTNB, very low IC50 values at nanomolar level—quasi-stoichiometric reaction—were obtained with wild-type human TrxR. By contrast, the IC50 values with the Sec→Cys mutant were at least 1000 times higher, proving that the selenocysteine residue is the inhibition target of human TrxR. […] A reduction of these enzymes is necessary to complete the inhibition, which proves that the active site comprising the Cys/Cys residues in the GR or Cys/Sec in the TrxR is the inactivation site. The pre-reduction of these enzymes accelerates the inhibition. The reaction between the inhibitor and these enzymes is very rapid and not precisely measurable with standard enzymology techniques. […] This competition would probably not contribute to the irreversible enzymatic inactivation.

The target in series [2] is T2, human GR (Homo sapiens, UniProt P00390).
T2 sequence (P00390 45-522 limits assumed): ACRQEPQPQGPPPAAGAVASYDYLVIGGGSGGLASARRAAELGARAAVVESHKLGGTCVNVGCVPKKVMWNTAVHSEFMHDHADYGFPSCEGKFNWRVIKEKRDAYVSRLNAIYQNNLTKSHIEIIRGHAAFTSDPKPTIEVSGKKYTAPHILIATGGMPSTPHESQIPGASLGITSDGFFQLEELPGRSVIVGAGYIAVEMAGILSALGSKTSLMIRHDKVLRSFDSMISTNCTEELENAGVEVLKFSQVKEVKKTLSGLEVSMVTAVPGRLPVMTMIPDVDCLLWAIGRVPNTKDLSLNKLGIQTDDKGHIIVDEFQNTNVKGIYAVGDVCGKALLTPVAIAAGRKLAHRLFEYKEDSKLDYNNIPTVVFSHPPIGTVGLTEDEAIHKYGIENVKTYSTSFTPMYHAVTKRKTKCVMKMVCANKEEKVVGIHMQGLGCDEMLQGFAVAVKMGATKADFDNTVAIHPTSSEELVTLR
Briefly: Test for reduction of GSSG by GR. It counts as biochemical. The conditions noted are these: 100 μM GSSG; 10 min pre-incubation with 100 μM NADPH.
Text: as §1

Series [3] addresses T3, hTrxRSec→Cys (Homo sapiens, UniProt Q16881).
T3 sequence (Q16881 with tags, fused parts or gaps limits assumed): T1 sequence (Q16881 151-649 limits assumed) with U498C
The series is described as follows: Test for reduction of Trx (hTrxC72S) by TrxR, mutant hTrxR-Mut. Type of series: biochemical. The conditions noted are these: 20 μM hTrxC72S; 10 min pre-incubation with 100 μM NADPH; enzyme 1.8 μM.
Text: as §1

Series [4] concerns the target T1, WT hTrxR. Briefly: Test for reduction of Trx (hTrxC72S) by TrxR, wild type. It counts as biochemical. The conditions noted are these: 20 μM hTrxC72S; 10 min pre-incubation with 100 μM NADPH; enzyme 24 nM.
Text: as §1

The target in series [5] is T3, hTrxRSec→Cys. The series is described as follows: Test for reduction of DTNB by TrxR, mutant hTrxR-Mut. It counts as biochemical. Conditions: 3 mM DTNB; 10 min pre-incubation with 200 μM NADPH; enzyme 90.6 nM.
Text: as §1

A further series has as its system DNA. The series is described as follows: Thermal DNA denaturation test. Type of series: binding. The conditions noted are these: tested between 0 and 20 μM. As for the experimental part: In addition to its major activity on human disulphide reductases, glutathione reductase and thioredoxin reductase, the binding of complex (1) to DNA was measured in thermal DNA denaturation tests.

Series [6] deals with T2, human GR. Briefly: Binding of (1) to human GR: titration and initial-speed kinetics. As to the method: The stoichiometry of binding of (1) to human GR was determined by titration. Based on these experiments, (1) binds very tightly to the binding site of the GSSG of each human GR sub-unit. […] Although numerous hydrophobic inhibitors of the human GR and of the GR of Plasmodium falciparum are bound in the cavity between the two sub-units of the dimer with a stoichiometry of 0.5 per sub-unit, this is not the case for the inhibitor (1). The stoichiometry of 1.25 equivalents of (1) per FAD or per sub-unit of human GR can be explained by the presence of a second molecule of (1) bound less tightly to another position in the human GR, confirming the 3D structure of the complex GR-(1). […] The inactivation mechanism of human GR therefore involves an S—Au(I)—S coordination and the loss of the phosphole ligand; • the second site for the metallo-phosphole (1) is the Cys284 exposed to the solvent, at 23 Å of the active site and located in a hydrophobic cavity. In this case, the sulphur atom of the Cys284 remains bound to the Au-phosphole entity. […]

Series [7] is described as follows: Tolerability in C6 glioma-bearing rats. It counts as in vivo, rat. As for the experimental part:
After confirmation of the tumour growth by MRI on day 9, the rats carrying tumours were treated by intravenous injection with the compound (1) at a concentration of 25 mg/kg (n=4). The tumour growth was compared to that of the non-treated control animals (n=4). The treatment commenced on day 9 and continued on days 11 and 13. On day 15 after the implantation of the tumour cells, all the rats were sacrificed by decapitation. Under these conditions, a 44% reduction of the tumour growth was observed between days 9 and 15 at a dose of compound (1) of 25 mg/kg of body weight compared with that of the control group (FIG. 1).

Series [8] deals with NCH89 human glioblastoma cell line. Briefly: BrdU in vitro proliferation test, NCH89. It counts as cell-based. Conditions: BrdU incorporation. As to the method: (§2) Briefly, the tumour cells are cultured and duplicated in 96-well plates in RPMI 1640 medium containing 10% foetal calf serum and antibiotics (cell density: 7×10^3 cells). […] After 48 hours, the reagent 5-bromo-2′-deoxyuridine (BrdU) was added at the final concentration of 10 μM for an incubation period of 19 hours. […] Compound (7) (Au-triphenylphosphine chloride complex, (PPh3)AuCl) and nitrosourea 1,3-bis(2-chloroethyl)-1-nitrosourea (BCNU, carmustine) are positive controls already reported in the literature.
(Incorporation of labelled thymidine or its analogues reports DNA synthesis.)

For series [9], the system named is NCH37 human glioblastoma cell line. Briefly: BrdU in vitro proliferation test, NCH37. Type of series: cell-based. Conditions: BrdU incorporation. As to the method: as §2
The test system of series [10] is NCH82 human glioblastoma cell line. Briefly: BrdU in vitro proliferation test, NCH82. It counts as cell-based. The conditions noted are these: BrdU incorporation. As to the method: as §2

Where a chain is given by its changes, count along the chain named.

Consider `[Cl][Au][PH]1(c2ccccc2)C(c2ccccn2)=C2CCCCC2=C1c1cccs1` [Compound 2], for which the IC50 is 1 nM on WT hTrxR [1]; 2 nM at human GR [2]; 1400 nM at hTrxRSec→Cys [3]; 7 nM on WT hTrxR [4]; 2500 nM on hTrxRSec→Cys [5].

For the compound `[Cl][Au][PH]1(c2ccccc2)C(c2ccccn2)=C2CCCCC2=C1c1ccccn1` [Compound 1], the “binding to DNA: concentration from which active” value with DNA was 1 µM. The IC50 at WT hTrxR [1] is 0.8 nM; on human GR [2], 1 nM; against hTrxRSec→Cys [3] it was 800 nM; on WT hTrxR [4], 7 nM; on hTrxRSec→Cys [5], 2500 nM. In addition, on human GR [6] (kinetics at initial speed with 0.5-2.0 μM GSSG, read-out: disassociation constant Kd=Ki), the equilibrium dissociation constant (Kd) amounted to 460 nM. At human GR [6] (titration, differences in extinction coefficient at selected wavelengths), the stoichiometry of binding was 1.25 equivalents of (1) per FAD or per sub-unit of human GR. Moreover, in series [7] (25 mg/kg), the “tolerability of the therapy” value is “well tolerated”. In series [7] (25 mg/kg i.v., C6 glioma rats), the death from treatment entry was “no animal died”. Also, the “total body weight, treated vs control” value in [7] (25 mg/kg i.v., C6 glioma rats) is recorded as “no significant difference”.

The compound `c1ccc(-p2c(-c3ccccn3)c3c(c2-c2ccccn2)CCCC3)cc1` [Compound 5] returned an IC50 in [8] of 6.7 ± 0.3 µM.

With `O=NN(CCCl)C(=O)NCCCl` [carmustine, 1,3-bis(2-chloroethyl)-1-nitrosourea], the concentration for half-maximal inhibition (IC50) in series [9] was 300 ± 12 µM; in series [8] it was 615 ± 38 µM; in series [10] it was 385 ± 25 µM.

`[Cl][Pt-2]1([Cl])[n+]2ccccc2C2=C3CCCCC3=C(c3cccs3)[P+]21c1ccccc1` (centres unmarked) [Compound 4]: the concentration for half-maximal inhibition (IC50) against WT hTrxR [1] was 1 nM; against human GR [2], 400 nM; on hTrxRSec→Cys [3], 2300 nM; on WT hTrxR [4] it was 8 nM; against hTrxRSec→Cys [5], 24000 nM.

Take `c1ccc(-p2c(-c3ccccn3)c3c(c2-c2cccs2)CCCC3)cc1` (centres unmarked) [Compound 6]: in series [8], the midpoint of inhibition, the IC50, lay at 8.5 ± 0.5 µM.

Broadly, the IC50 is the midpoint of a concentration-inhibition curve. Higher therefore signals weaker potency. The term Kd denotes the concentration at which binding is half-saturated.

The values above are taken from patent US7923434B2, “Phosphole derivatives complexed with metals, and pharmaceutical uses thereof” (Centre National de la Recherche Scientifique, priority 2004, dated 2011).
